From patent US6551999B1, “Angiogenesis inhibitor” (Senju Pharmaceutical Co., Ltd., priority 1995, dated 2003)

How the values were obtained:
Assay type in all cases: biochemical
μ-calpain = biological target: T1, μ-calpain (Homo sapiens, UniProt P07384); assay: μ-Calpain-inhibitory activity (casein substrate); details: 60 minutes at 30° C., pH 7.4, 4 mM calcium chloride
T1 construct: purchased Nakalai Tesque
T1 sequence (P07384 1-714): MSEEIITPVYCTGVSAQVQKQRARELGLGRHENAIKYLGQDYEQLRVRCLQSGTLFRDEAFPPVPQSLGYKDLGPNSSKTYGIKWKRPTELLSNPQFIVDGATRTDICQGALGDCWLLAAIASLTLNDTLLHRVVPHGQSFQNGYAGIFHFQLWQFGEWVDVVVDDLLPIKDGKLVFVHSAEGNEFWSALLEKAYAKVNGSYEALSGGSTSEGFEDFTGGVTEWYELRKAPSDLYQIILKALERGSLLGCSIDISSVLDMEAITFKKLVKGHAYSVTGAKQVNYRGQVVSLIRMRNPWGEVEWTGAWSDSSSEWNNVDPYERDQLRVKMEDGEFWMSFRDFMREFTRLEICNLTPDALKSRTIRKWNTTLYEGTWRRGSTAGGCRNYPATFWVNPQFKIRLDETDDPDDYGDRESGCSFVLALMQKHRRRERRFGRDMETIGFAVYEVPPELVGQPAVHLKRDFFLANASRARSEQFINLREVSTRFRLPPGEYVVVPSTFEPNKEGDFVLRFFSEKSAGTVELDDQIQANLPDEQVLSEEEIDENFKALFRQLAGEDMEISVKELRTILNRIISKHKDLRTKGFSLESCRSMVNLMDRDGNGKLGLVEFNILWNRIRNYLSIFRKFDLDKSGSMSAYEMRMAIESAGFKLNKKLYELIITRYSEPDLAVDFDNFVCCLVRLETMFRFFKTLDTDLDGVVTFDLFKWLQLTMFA
T1 sequence (P04632 1-268 partner): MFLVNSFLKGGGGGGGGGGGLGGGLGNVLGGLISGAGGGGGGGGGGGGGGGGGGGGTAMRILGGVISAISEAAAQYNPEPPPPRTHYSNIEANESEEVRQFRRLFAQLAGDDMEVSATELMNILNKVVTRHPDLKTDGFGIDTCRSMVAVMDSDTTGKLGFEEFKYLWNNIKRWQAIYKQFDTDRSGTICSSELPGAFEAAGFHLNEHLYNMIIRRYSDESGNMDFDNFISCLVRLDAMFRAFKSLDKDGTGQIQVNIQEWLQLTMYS
Experimental: Thus, to a solution containing 0.5 mg/ml casein, 50 mM Tris-HCl (pH 7.4), 20 mM dithiothreitol, and 4 mM calcium chloride was added 2.5 μl of a dimethyl sulfoxide solution containing a varying concentration of the test drug as well as 0.03 unit of μcalpain to initiate the reaction. The final liquid volume was 250 μl. After 60 minutes of reaction at 30° C., 100 μl of the reaction mixture was transferred to another vessel, to which 50 μl of purified water and 100 μl of 50% Coumassie brilliant blue solution were added. […] As a control, 2.5 μl of dimethyl sulfoxide not containing the test drug was added and the mixture was treated in the same manner as above. […] Similarly, the value found by adding 0.2 mM EDTA in lieu of 4 mM aqueous calcium chloride solution was used as the blank value. […] [formula]

papain = biological target: T2, papain (Carica papaya, UniProt P00784); assay: Assay of papain-inhibitory activity (casein substrate); details: 60 minutes at 30° C., pH 8.0
T2 sequence (P00784 134-345): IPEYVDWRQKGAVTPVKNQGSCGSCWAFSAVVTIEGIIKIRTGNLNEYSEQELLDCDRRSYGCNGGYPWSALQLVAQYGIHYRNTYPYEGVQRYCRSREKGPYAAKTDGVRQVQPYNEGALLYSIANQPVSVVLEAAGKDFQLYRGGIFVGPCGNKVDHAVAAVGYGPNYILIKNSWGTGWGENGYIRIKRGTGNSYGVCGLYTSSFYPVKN
Experimental: (§1) The activity of papain which is a cysteine protease and of trypsin (Sigma) which is a serine protease was assayed in accordance with the method described in the literature [Anal. Biochem., 208, 387-392, 1993]. Thus, to a solution containing 0.5 mg/ml casein, 50 mM Tris-HCl (pH 8.0), 20 mM dithiothreitol, and 0.2 mM EDTA was added 2.5 μl of dimethyl sulfoxide containing a varying concentration of the test drug as well as 0.03 unit of papain or trypsin to initiate the reaction. The final liquid volume was adjusted to 250 μl. After 60 minutes of reaction at 30° C., 100 μl of the reaction mixture was transferred to another vessel and following addition of 50 μl of purified water and 100 μl of 50% Coumassie brilliant blue solution, the mixture was allowed to stand at room temperature for 15 minutes. The absorbance of the mixture was then measured at 595 nm. Using the value found similarly by adding 2.5 μl of dimethyl sulfoxide not containing the test drug as control and the value found without addition of the enzyme as blank, IC50 was determined in the same manner as above.

cathepsin L = biological target: T3, cathepsin L (Homo sapiens, UniProt P07711); assay: Assay of cathepsin L-inhibitory activity (Z-Phe-Arg-MCA); details: 20 minutes at 30° C., pH 5.5
T3 construct: purchased Cosmo Bio
Experimental: The activity of cathepsin L (Cosmo Bio), a cysteine protease, was assayed by the method described in the literature [Methods in Enzymology, 80, 535-561, 1981]. Thus, to a solution containing 85 mM acetate buffer (pH 5.5), 2 mM dithiothreitol, 1 mM EDTA, 2 μg cathepsin L, and a varying concentration of the test compound was added 50 μl of 20 μM carbobenzoxy-L-phenylalanyl-L-arginine-4-methylcoumaryl-7-amide (Z-Phe-Arg-MCA) to initiate the reaction at the final liquid volume of 200 μl. After 20 minutes of reaction at 30° C., 20 μl of 1 M Tris-HCl (pH 8.0) was added so as to stop the reaction. The amount of liberated 4-methyl-7-aminocoumarin was determined with a fluorospectrometer at an excitation wavelength of 360 nm and a fluorescent emission wave length of 450 nm. Using the value found without addition of the test drug as control and the value found without addition of the enzyme as blank, IC50 was determined in the same manner as above.

trypsin = biological target: T4, trypsin (UniProt P00760); assay: Assay of trypsin-inhibitory activity (casein substrate); details: read-out: Trypsin 50% Inhibitory concentration (IC50); 60 minutes at 30° C., pH 8.0
T4 sequence (P00760 1-246): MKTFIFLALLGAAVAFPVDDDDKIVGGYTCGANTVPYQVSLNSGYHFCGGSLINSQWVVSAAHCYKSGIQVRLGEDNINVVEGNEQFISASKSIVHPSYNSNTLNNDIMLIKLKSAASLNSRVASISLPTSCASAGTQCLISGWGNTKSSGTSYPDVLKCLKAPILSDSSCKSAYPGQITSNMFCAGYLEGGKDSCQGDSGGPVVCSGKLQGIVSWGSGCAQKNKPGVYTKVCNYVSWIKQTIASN
Experimental: as §1

T3 sequence (P07711 114-333, species assumed): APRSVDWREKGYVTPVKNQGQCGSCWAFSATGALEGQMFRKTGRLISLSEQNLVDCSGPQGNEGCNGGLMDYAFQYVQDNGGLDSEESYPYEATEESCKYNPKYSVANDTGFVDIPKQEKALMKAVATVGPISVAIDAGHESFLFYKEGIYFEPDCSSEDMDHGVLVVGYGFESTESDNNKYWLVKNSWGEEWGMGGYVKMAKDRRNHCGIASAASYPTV

Row | Structure (SMILES) | IC50 (μ-calpain) | IC50 (papain) | IC50 (cathepsin L) | IC50 (trypsin)
1 | O=C(O)[C@H]1O[C@@H]1C(=O)NCC(=O)N1CCN(c2ccccc2Cl)CC1 [Compound 22, (2s,3s)-3-[[[[[4-(2-chlorophenyl)-1-piperazinyl]carbonyl]methyl]amino]carbonyl]oxiranecarboxylic acid] | 18 µM | 4 µM | 38 µM | > 3000 µM
2 | CC(C)C[C@H](NC(=O)[C@H]1O[C@@H]1C(=O)O)C(=O)N1CCN(c2ccccc2Cl)CC1 [Compound 17, (2s,3s)-3-[[[[(1s)-1-[[4-(2-chlorophenyl)-1-piperazinyl]carbonyl]-3-methyl]butyl]amino]carbonyl]oxiranecarboxylic acid] | 0.35 µM | 0.062 µM | 0.027 µM | > 3000 µM
